The subject of one experiment is anti-OVA IgG. As to the kind of experiment: Comparison with existing adjuvants: IgG titer after boost. Format: in vivo, mice. The settings on record: 100 μg adjuvant, intramuscular, 7th day after third immunization.
Experiment [1] has as its system anti-OVA IgM and IgG antibodies. Put plainly: OVA evaluation system: adjuvant activity in antibody titer in mice. The settings on record: for adjuvant effect among TH-Z80 series: intramuscular, OVA; for adjuvant effect among bisphosphonic acid compounds / adjuvant effect vs 8 commercially available bisphosphonic acid compounds: 100 ug. Format: in vivo. How it is done: OVA evaluation system was used to determine adjuvant activity in antibody titer.
Mice of C57B/6 strain were used. The mice in the experimental group were injected with the obtained mixture of each of the statins and OVA antigen through soles injection, with 20 μl for each mouse. The mice in the control group were injected with a 1:1 mixture of PBS or DMSO (10 μl) and 10 μl OVA antigen (PBS or DMSO is 10 μl, respectively, and the antigen is 10 μl) through soles injection, with 20 μl for each mouse. On Day 7 and Day 14 after immunization, blood was taken from the mice's orbits, with 100 μl was taken from each mouse. The obtained blood was left at 4° C. overnight, and centrifuged at 6000 rpm for 8 min. The supernatant serum was removed and the titers of anti-OVA IgM and IgG antibodies in the serum were determined.
Test of the OVA antibody titer: The OVA protein was diluted to a concentration of 2 μg/ml with a carbonate solution of pH 9.6, coated in a 96-well ELISA plate at 50 μl per well, and left at 4° C. overnight. The ELISA plate was washed five times with PBS containing 0.05% Tween 20, blocked with 1% BSA solution at 200 μl per well, and incubated at room temperature for 2 h. The ELISA plate was washed five times with PBST (Phosphate Buffered Saline with Tween), a 2-fold serial dilution of the mouse serum after immunized with OVA was added at 50 μl per well and incubated at room temperature for 2 h. After the ELISA plate was washed five times with PBST, HRP (horseradish peroxidase)-labeled goat-anti-mouse IgM or IgG antibody was added and incubated at room temperature for 45 min. The ELISA plate was washed five times with PBST, and a color developing solution of sodium citrate OPD (o-phenylenediamine) was added. After 10 min of color development in the dark, sulfuric acid was added to terminate the reaction. The reading was performed with ELIASA OD490. The maximum serum dilution factor, when the ratio of light absorptions of the experimental group to the control group was >2.0, was the titer of the anti-OVA antibody in the serum.
Each test compound was formulated at a concentration of 2 mg/ml and the concentration of OVA antigen was 2 mg/ml. Each compound was mixed with OVA at 1:1. Each C57B/6 mouse in the experimental group was injected with 100 μl of the mixture (containing 50 μl of the antigen and 50 μl of the compound) by intramuscular injection at the right thigh. On Day 7 and Day 14 after immunization, blood was taken from the mice's orbit, and 100 μl was taken for each mouse. The obtained blood was allowed to stand at 4° C. overnight, and centrifuged at 6000 rpm for 8 min. The supernatant serum was removed, and the titers of anti-OVA IgM and IgG antibodies in the serum were determined.
Method: each of the test compounds (the 10 bisphosphonates as described above) was mixed with the OVE antigen at 1:1, and the concentrations of bisphosphonic acid and OVA were both 10 mg/ml. Mice of C57B/6 strain were used. The mice in the experimental group were injected with the mixture of each of the test compounds and OVA antigen through soles injection, with 20 μl for each mouse, and wherein the amounts of OVA antigen and each of the test compounds were both 100 ug. The mice in the control group were injected with a 1:1 mixture of […] and 10 μl OVA antigen through sole injection. On Day 7 and Day 14 after immunization, blood was taken from the mice's orbits, and 100 μl was taken from each mouse.
The obtained blood was left at 4° C. overnight, and centrifuged at 6000 rpm for 8 min. The supernatant serum was removed, and the titers of anti-OVA IgM and IgG antibodies in the serum were determined.
Method: TH-Z144 and TH-Z145 were prepared at the concentration of 10 mg/ml, the concentration of OVA antigen was also 10 mg/ml, and the compound and the antigen were mixed at 1:1. Mice of C57B/6 strain were used.

Where [2] appears, read: bisphosphonic acids 100 ug with OVA, soles injection, Day 7 and Day 14.

With `CCC(C)(C)C(=O)O[C@H]1C[C@@H](C)C=C2C=C[C@H](C)[C@H](CC[C@@H]3C[C@@H](O)CC(=O)O3)[C@H]21` [simvastatin, reference compound], the “IgG antibody titer after boost vs PBS control” value in the experiment with anti-OVA IgG is reported as “significantly high titers”. For the same molecule, the “adjuvant effect among statin drugs” value in experiment [1] (statins with OVA, soles injection) is “most significant adjuvant effects”. Moreover, the “IgM and IgG antibody titers vs PBS or DMSO control” value in experiment [1] (statins with OVA, soles injection, Day 7 and Day 14) is given as “significantly higher titers”.
On to `CCCCCCCCOc1ccc2c(c1)ncn2CC(O)(P(=O)(O)O)P(=O)(O)O` [TH-Z81], for which, in experiment [1], the “adjuvant effect among TH-Z80 series” value was “most significant adjuvant effects”.
For `CCCCCCCCCOc1ccc2c(c1)ncn2CC(O)(P(=O)(O)O)P(=O)(O)O` [TH-Z153], in experiment [1], the “adjuvant effect among TH-Z80 series” value was “most significant adjuvant effects”.
`CCCCCCOc1ccc2c(c1)ncn2CC(O)(P(=O)(O)O)P(=O)(O)O` [TH-Z80]: the “IgG antibody titer after boost vs PBS control” value in the experiment on anti-OVA IgG is recorded as “significantly high titers”. In addition, in experiment [1] (soles injection), the “adjuvant effect among bisphosphonic acid compounds” value is “most significant adjuvant effects” and the “adjuvant effect vs 8 commercially available bisphosphonic acid compounds” value is “much higher than any of the 8 commercially available bisphosphonic acid compounds”. The “IgM and IgG antibody titers vs PBS control” value in experiment [1] (setting [2]) is listed as “more than five times higher”. Also, in experiment [1], the “adjuvant effect among TH-Z80 series” value is “most significant adjuvant effects”. For the same molecule, the “antibody titers vs PBS control at different immunization sites” value in experiment [1] (soles, subcutaneous, muscle, abdominal and nasal mucosa) is listed as “significantly increased”.
In the case of “(2-(3-(octyloxy)phenyl)ethane-1,1-diyl)bisphosphonic acid [TH-Z145]”, the “IgG antibody titer after boost vs PBS control” value in the experiment with anti-OVA IgG was “significantly high titers”. Further, the “IgM and IgG antibody titers vs PBS control” value in experiment [1] (GGPPS inhibitors 100 μg with OVA, right sole, Day 7 and Day 14) is recorded as “significantly higher titers”.
Take `CCCCCCOc1ccnc(NC(P(=O)(O)O)P(=O)(O)O)c1` [TH-Z93, (((4-(hexyloxy)pyridin-2-yl)amino)methylene)bisphosphonic acid]: the “IgG antibody titer after boost vs PBS control” value in the experiment on anti-OVA IgG is reported as “significantly high titers”. In addition, in experiment [1] (soles injection), the “adjuvant effect among bisphosphonic acid compounds” value is reported as “most significant adjuvant effects” and the “adjuvant effect vs 8 commercially available bisphosphonic acid compounds” value is given as “much higher than any of the 8 commercially available bisphosphonic acid compounds”. In addition, the “IgM and IgG antibody titers vs PBS control” value in experiment [1] (setting [2]) was “more than five times higher”.
As to `CCCCCCCOc1ccc2c(c1)ncn2CC(O)(P(=O)(O)O)P(=O)(O)O` [TH-Z152], the “adjuvant effect among TH-Z80 series” value in experiment [1] was “most significant adjuvant effects”.
